Test results reported in ChEMBL document CHEMBL1155411, “Design of two new chemotypes for inhibiting the Janus kinase 2 by scaffold morphing” (Bioorg Med Chem Lett, 2010).

Biological target: Tyrosine-protein kinase JAK2 (Homo sapiens, UniProt O60674)
Assay: Inhibition of recombinant GST tagged JAK2 after 60 mins by Caliper mobility shift assay

Tyrosine-protein kinase JAK2, sequence (O60674 whole entry): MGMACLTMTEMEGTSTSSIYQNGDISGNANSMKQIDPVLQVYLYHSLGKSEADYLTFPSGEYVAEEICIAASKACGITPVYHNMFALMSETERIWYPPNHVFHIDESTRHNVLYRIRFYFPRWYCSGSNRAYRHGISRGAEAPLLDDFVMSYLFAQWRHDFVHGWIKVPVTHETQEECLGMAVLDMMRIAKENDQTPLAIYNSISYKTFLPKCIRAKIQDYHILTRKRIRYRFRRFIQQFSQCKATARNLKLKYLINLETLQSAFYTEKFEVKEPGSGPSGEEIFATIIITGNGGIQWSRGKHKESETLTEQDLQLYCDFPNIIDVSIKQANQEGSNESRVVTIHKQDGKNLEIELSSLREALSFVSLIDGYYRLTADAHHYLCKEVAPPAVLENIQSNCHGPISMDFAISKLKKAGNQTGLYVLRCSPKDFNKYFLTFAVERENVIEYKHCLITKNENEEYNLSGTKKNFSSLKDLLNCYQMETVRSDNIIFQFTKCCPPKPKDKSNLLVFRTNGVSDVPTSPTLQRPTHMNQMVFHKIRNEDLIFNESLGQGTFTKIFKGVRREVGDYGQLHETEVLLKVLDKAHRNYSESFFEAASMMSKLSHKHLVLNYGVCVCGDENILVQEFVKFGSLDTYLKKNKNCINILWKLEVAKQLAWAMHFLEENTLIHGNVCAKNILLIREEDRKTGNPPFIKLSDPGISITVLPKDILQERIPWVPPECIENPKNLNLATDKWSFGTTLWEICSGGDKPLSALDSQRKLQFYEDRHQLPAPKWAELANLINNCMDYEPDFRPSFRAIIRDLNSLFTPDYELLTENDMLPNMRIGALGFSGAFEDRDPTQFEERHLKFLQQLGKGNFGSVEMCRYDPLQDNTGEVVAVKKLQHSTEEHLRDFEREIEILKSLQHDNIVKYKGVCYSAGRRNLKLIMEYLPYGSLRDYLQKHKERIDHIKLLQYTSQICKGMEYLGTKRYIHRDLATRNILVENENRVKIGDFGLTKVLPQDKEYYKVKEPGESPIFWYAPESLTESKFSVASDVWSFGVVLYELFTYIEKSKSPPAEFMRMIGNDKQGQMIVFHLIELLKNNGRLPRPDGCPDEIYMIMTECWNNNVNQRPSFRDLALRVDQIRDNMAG

- IC50: 5.9 nM
Compound: COc1cc(Nc2ncc3ccn(-c4ccccn4)c3n2)cc(OC)c1OC
